Measurements: paper PMC10584170, “Machine learning-based phenotypic imaging to characterise the targetable biology of Plasmodium falciparum male gametocytes for the development of transmission-blocking antimalarials” (PLOS Pathogens, 2023)
Like-named read-outs stand apart in the source and are kept apart here.

Experiments:
[1] = system: P. falciparum male gametocytes; test: P. falciparum Dual Gamete Formation Assay (PfDGFA), male readout (exflagellation); assay type: cell-based, Plasmodium falciparum NF54; conditions: for Selectivity Ratio M: HepG2 Tox50 versus male IC50; for IC50: PfDGFA, 24 h incubation with gametocytes before induction, exflagellation readout, read-out: Male IC50; for HitlevelM: number of replicates with >50% inhibition in the male readout
How it was run: (§1)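 Male and female gamete formation were quantified by microscopy image analysis following 24 h incubation of mature NF54 gametocytes with compound and activation at 28°C with xanthurenic acid.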

[2] = system: HepG2 cells; test: HepG2 cytotoxicity counter-screen; conditions: cytotoxic activity against HepG2 cells
[3] = system: P. falciparum female gametocytes; test: P. falciparum Dual Gamete Formation Assay (PfDGFA), female readout (Pfs25-positive female gametes); assay type: cell-based, Plasmodium falciparum NF54; conditions: for Selectivity ratio F: HepG2 Tox50 versus female IC50; for IC50: PfDGFA, 24 h incubation with gametocytes before induction, female gamete readout, read-out: Female IC50; for HitlevelF: number of replicates with >50% inhibition in the female readout
How it was run: as §1

[4] = Plasmodium falciparum, PfDGFA at 2µM, 24h preincubation with gametocytes, average of replicates, read-out: Average inhibition male (%)
[5] = Plasmodium falciparum, PfDGFA at 2µM, 24h preincubation with gametocytes, replicate R1, read-out: % inhibition male (individual replicates) R1
[6] = Plasmodium falciparum, PfDGFA at 2µM, 24h preincubation with gametocytes, replicate R2, read-out: % inhibition male (individual replicates) R2
[7] = Plasmodium falciparum, PfDGFA at 2µM, 24h preincubation with gametocytes, replicate R3, read-out: % inhibition male (individual replicates) R3
[8] = Plasmodium falciparum, PfDGFA at 2µM, 24h preincubation with gametocytes, replicate R4, read-out: % inhibition male (individual replicates) R4
[9] = Plasmodium falciparum, PfDGFA at 2µM, 24h preincubation with gametocytes, average of replicates, read-out: Average inhibition female (%)
[10] = Plasmodium falciparum, PfDGFA at 2µM, 24h preincubation with gametocytes, replicate R1, read-out: % inhibition female (individual replicates) R1
[11] = Plasmodium falciparum, PfDGFA at 2µM, 24h preincubation with gametocytes, replicate R2, read-out: % inhibition female (individual replicates) R2
[12] = Plasmodium falciparum, PfDGFA at 2µM, 24h preincubation with gametocytes, replicate R3, read-out: % inhibition female (individual replicates) R3
[13] = Plasmodium falciparum, PfDGFA at 2µM, 24h preincubation with gametocytes, replicate R4, read-out: % inhibition female (individual replicates) R4
[14] = 2µM, 24h preincubation with gametocytes, average of replicates
[15] = 2µM, 24h preincubation with gametocytes, replicate R1
[16] = 2µM, 24h preincubation with gametocytes, replicate R3
[17] = 2µM, 24h preincubation with gametocytes, replicate R4
[18] = PfDGFA at 2µM, 24h preincubation with gametocytes, average of replicates
[19] = PfDGFA at 2µM, 24h preincubation with gametocytes, replicate R1
[20] = PfDGFA at 2µM, 24h preincubation with gametocytes, replicate R3
[21] = PfDGFA at 2µM, 24h preincubation with gametocytes, replicate R4

Row | Structure (SMILES) | Selectivity Ratio M [1] | inhibition at 2 µM [1, 4] | inhibition at 2 µM [1, 5] | inhibition at 2 µM [1, 6] | inhibition at 2 µM [1, 7] | inhibition at 2 µM [1, 8] | IC50 ([1]; Plasmodium falciparum) | HitlevelM ([1]; 2µM) | Tox50 [2] | Selectivity ratio F [3] | inhibition at 2 µM [3, 9] | inhibition at 2 µM [3, 10] | inhibition at 2 µM [3, 11] | inhibition at 2 µM [3, 12] | inhibition at 2 µM [3, 13] | IC50 ([3]; Plasmodium falciparum) | HitlevelF ([3]; 2µM) | IC50 [1] | IC50 [3] | also measured
1 | FC(F)(F)c1ccc2[nH]c(-c3ccc(-c4ccc(CNCCN5CCNCC5)cc4)cc3)nc2c1.O=C(O)C(F)(F)F [TCMDC-132865] | 9.44 | 69.5% | 60.9% | 79.2% | 39.1% | 98.9% | 1460 nM | 3 | 13.76 µM | 2.26 | 29.2% | 27.7% | 31% | 31% | 27.1% | 6080 nM | 0 | – | – | –
2 | Fc1ccc2[nH]c(-c3ccc(-c4ccc(CNCCN5CCNCC5)cc4)cc3)nc2c1.O=C(O)C(F)(F)F [TCMDC-132866] | 12.07 | 63.5% | 59% | 70.4% | 32.6% | 92.2% | 2390 nM | 3 | 28.84 µM | 2.88 | 11.4% | 18% | 1.6% | 12.7% | 13.5% | > 10000 nM | 0 | – | – | –
3 | Cc1cccc2nc(-c3ccc(-c4cccc(CNCCN5CCNCC5)c4)cc3)[nH]c12.O=C(O)C(F)(F)F [TCMDC-132867] | 12.97 | – | – | – | – | – | 1870 nM | – | 24.28 µM | 2.66 | – | – | – | – | – | 9110 nM | – | – | – | HitlevelM ([1]; 2µM, 24h preincubation): 3; inhibition at 2 µM ([1]; Plasmodium falciparum, 2µM, 24h preincubation with gametocytes prior to induction of gametogenesis, average of replicates, read-out: Average inhibition male (%)): 46.3%; inhibition at 2 µM ([1]; Plasmodium falciparum, 2µM, 24h preincubation with gametocytes prior to induction of gametogenesis, replicate R1, read-out: % inhibition male (individual replicates) R1): 51.3%; inhibition at 2 µM ([1]; Plasmodium falciparum, 2µM, 24h preincubation with gametocytes prior to induction of gametogenesis, replicate R2, read-out: % inhibition male (individual replicates) R2): 52.2%; inhibition at 2 µM ([1]; Plasmodium falciparum, 2µM, 24h preincubation with gametocytes prior to induction of gametogenesis, replicate R3, read-out: % inhibition male (individual replicates) R3): 9.9%; inhibition at 2 µM ([1]; Plasmodium falciparum, 2µM, 24h preincubation with gametocytes prior to induction of gametogenesis, replicate R4, read-out: % inhibition male (individual replicates) R4): 71.6%; HitlevelF ([3]; 2µM, 24h preincubation): 1; inhibition at 2 µM ([3]; Plasmodium falciparum, 2µM, 24h preincubation with gametocytes prior to induction of gametogenesis, average of replicates, read-out: Average inhibition female (%)): 20.3%; inhibition at 2 µM ([3]; Plasmodium falciparum, 2µM, 24h preincubation with gametocytes prior to induction of gametogenesis, replicate R1, read-out: % inhibition female (individual replicates) R1): 12%; inhibition at 2 µM ([3]; Plasmodium falciparum, 2µM, 24h preincubation with gametocytes prior to induction of gametogenesis, replicate R2, read-out: % inhibition female (individual replicates) R2): 8.9%; inhibition at 2 µM ([3]; Plasmodium falciparum, 2µM, 24h preincubation with gametocytes prior to induction of gametogenesis, replicate R3, read-out: % inhibition female (individual replicates) R3): 0.36%; inhibition at 2 µM ([3]; Plasmodium falciparum, 2µM, 24h preincubation with gametocytes prior to induction of gametogenesis, replicate R4, read-out: % inhibition female (individual replicates) R4): 60%
4 | Fc1ccc2[nH]c(-c3ccc(-c4ccc(CNCCN5CCNCC5)cc4)s3)nc2c1.O=C(O)C(F)(F)F [TCMDC-132869] | 12.22 | 66.3% | 55.2% | 84.7% | 32.6% | 92.9% | 1970 nM | 3 | 24.05 µM | 3.35 | 6.1% | 10.8% | 10.6% | -3.4% | 6.4% | 7180 nM | 0 | – | – | –
5 | FC(F)(F)c1ccc2[nH]c(-c3cccc(-c4cccc(CNCCN5CCNCC5)c4)c3)nc2c1.O=C(O)C(F)(F)F [TCMDC-132871] | 6.65 | – | – | – | – | – | – | – | 10.12 µM | 1.27 | – | – | – | – | – | – | – | 1520 nM | 7940 nM | Average inhibition male (%) [1, 14]: 95.8%; % inhibition male (individual replicates) R1 [1, 15]: 94.1%; % inhibition male (individual replicates) R3 [1, 16]: 90.3%; % inhibition male (individual replicates) R4 [1, 17]: 100.2%; Average inhibition female (%) [3, 14]: 25.3%; % inhibition female (individual replicates) R1 [3, 15]: 24.1%; % inhibition female (individual replicates) R3 [3, 16]: 40.5%; % inhibition female (individual replicates) R4 [3, 17]: 19.2%
6 | FC(F)(F)c1ccc2[nH]c(-c3cccc(-c4ccc(CNCCN5CCNCC5)cc4)c3)nc2c1.O=C(O)C(F)(F)F [TCMDC-132872] | 9.17 | – | – | – | – | – | – | 3 | 14.49 µM | 2.18 | – | – | – | – | – | – | 0 | 1580 nM | 6650 nM | Average inhibition male (%) [1, 18]: 72.1%; % inhibition male (individual replicates) R1 [1, 19]: 71.0%; % inhibition male (individual replicates) R3 [1, 20]: 37.9%; % inhibition male (individual replicates) R4 [1, 21]: 97.6%; Average inhibition female (%) [3, 18]: 30.3%; % inhibition female (individual replicates) R1 [3, 19]: 24.6%; % inhibition female (individual replicates) R3 [3, 20]: 21.1%; % inhibition female (individual replicates) R4 [3, 21]: 42.9%
